These results are taken from patent EP1592418B1, “USE OF ENDOCANNABINOID-LIKE COMPOUNDS FOR TREATING CNS DEGENERATIVE DISORDERS” (Research & Innovation S.p.A., priority 2003, dated 2004).

Data set [1] in a line: Solubility (physico-chemical properties). It counts as physicochemical. The note with it: for solubility: organic solvent or mixture, read-out: solubility in organic solvents.
For another data set, the system named is Jurkat cells. As to the kind of experiment: Evaluation of cellular viability by MTT assay. It counts as cell-based, human. The note with it: for Growth inhibition (% of control): 10 µM, incubated 18-24 hr, MTT, absorbance 570 nm. The method, then: Jurkat, an acute T-lymphoblastic leukemia cell line generated from a person, have been used. Cell culture have been cultured in RPMI-1640 culture medium containing 10% FBS.
Jurkat cells were cultured at 1x10^5 cells/ml in RPMI 1640 medium supplemented with 10% fetal bovine serum (FBS), 2mM L-glutamine and 100 U/ml penicillin + 100 ug/ml streptomycin.
To detect drug effect in vitro, MTT [3-(4,5-dimethylthiazol-2-yl)-2,5-diphenyltetrazolium bromide] assay was used as described (Carmichael J et al., 1987 Cancer Res. 47, 936-42). Briefly, cells were seeded in triplicate on 96-well culture plates at a density of 20000 cells/well. The drugs were added in order to have the final concentration of 10 µM (1 µl of a solution of 10mM in DMSO) and incubated for 18-24 hr. Then MTT (0.5 mg/ml) was added to each well, and plates were incubated for an additional 1 to 3 hr in the dark at 37 °C. After this time the MTT solution was aspirated from the wells and 0.1 ml of DMSO was added. The plates were allowed to stand for 10 min, and then the absorbance was determined in a SpectraCount (Packard) microplate reader at 570 nm. The drug effect was determined by comparing absorbances of treated and untreated cells.
On the technique in general: Tetrazolium dyes change colour on reduction, which living cells bring about.

Data set [2] has as its system reverse passive Arthus reaction, mouse ear pinna. Kind of data set: Reverse passive Arthus reaction (RPA) in the mouse ear pinna: oedema and Evans blue extravasation. In kind it is in vivo. The note with it: for Extravasation / Riduction % (extravasation): 10 mg/Kg i.p.; for Extravasation: Evans blue density at 620 nm in ear homogenate supernatant, Vehicle 0,90±0,06, Naïve 0,04±0,01; for Oedema (mg): 10 mg/Kg intraperitoneally 1 hour before induction, weight increase of 8 mm punch vs contralateral ear, three hours after antigen, Vehicle 49,8 ± 1,2, Naive 23,7 ± 1,2; for Riduction % (extravasation): reduction of extravasation versus Vehicle (0). From the text:
The Arthus model (RPA) is a model of immune-complex mediated tissue damage that involves the passive subcutaneous introduction of an antibody and the systemic administration of the corresponding antigen. This inflammatory model has been used to test the in vivo activity of the synthesised molecules.
The reverse passive Arthus reaction is induced, in the mouse ear pinna, by the subcutaneous injection of an excess of IgG anti human albumin followed by i.v. adiministration of the corresponding Ag (i.e. human albumin) together with Evans blue, 2 mg for each mouse, for the evaluation of extravasation.
The tested molecules were solubilised in DMSO, cremophor and PBS in a ratio of 1:1:18 and administered usually by intraperitonelly at the dosage of 10 mg/Kg 1 hour before the induction of anafilactic reaction. The animals were sacrificed 3 hours after the molecule administration.
The oedema and the extravasations are evaluated tree hours after the i.v. administration of the antigen. The oedema is evaluated as the increase of weight of lesioned ear area dissected by a 8 mm biopsy punch as compared to the contralateral unlesioned auricular tissues. The extravasation is measured determining the Evans blue density at 620 nm in the supernatants deriving from ear homogenates following centrifugation at 10000 x g for 20 min.

Broadly, the solubility is how much of the substance goes into solution per volume. `CCCCCCCCCCCCCCCC(=O)NCCCCC` [Example 33, N-pentyl-palmitoyl amide]: the solubility in data set [1] (in DMSO and in chloroform) is greater than 10000 µg/mL. Further, the solubility in water entry in data set [1] was “scarcely soluble”. For the same molecule, the “Growth inhibition (% of control)” value with Jurkat cells is reported as 33.3 % of control. In data set [2] (mouse ear), the Extravasation is 0,72±0,06, the “Oedema (mg)” value is 43,9 ± 2.4 mg and the “Riduction % (extravasation)” value is 20.0%.
As to `CCCCCCCCCCCCCCCC(=O)NC1CCCC1` [Example 14, N-cyclopentyl-palmitoyl amide], the “solubility in organic solvents” value in data set [1] (in DMSO and in chloroform) is >10 mg/ml in DMSO and in chloroform. Also, in data set [1], the solubility in water entry is listed as “scarcely soluble”. In addition, the “Growth inhibition (% of control)” value in the data set with Jurkat cells is given as 52.6 % of control. In data set [2] (mouse ear, 10 mg/kg), the Extravasation is reported as 0,52±0,06, the “Oedema (mg)” value is listed as 39,5 ± 0.8 mg and the “Riduction % (extravasation)” value worked out at 32.3%.
On to `CCCCCCCCCCCCCCCCCC(=O)NCC(C)C` [Example 26, N-isobutyl-stearoyl amide], for which, in data set [1] (in DMSO and in chloroform), the solubility is greater than 10000 µg/mL. Moreover, in data set [1], the solubility in water result is “scarcely soluble”. For the same molecule, in data set [2] (mouse ear), the Extravasation is 0,81±0,05, the “Oedema (mg)” value is 40,3 ± 0.7 mg and the “Riduction % (extravasation)” value worked out at 10.0%.
Take `CCCCCCCCCCCCCCCCCC(=O)OCCCC` [Example 30, n-butyl-stearate]: in data set [1] (in DMSO and in chloroform), the solubility is greater than 10000 µg/mL. Further, the solubility in water result in data set [1] is given as “scarcely soluble”.
Turning to `CCCCCCCCCCCCCCCC(=O)NC1CCCC1` [Example 37, N-cyclopentyl-palmitoyl amide], in data set [1] (in DMSO and in chloroform), the solubility was greater than 10000 µg/mL. In data set [1], the solubility in water entry is “scarcely soluble”. The “Growth inhibition (% of control)” value in the data set on Jurkat cells is given as 32.1 % of control. Further, in data set [2] (mouse ear, 10 mg/kg), the Extravasation is 0,64±0,13, the “Oedema (mg)” value is 36,2 ± 0.9 mg and the “Riduction % (extravasation)” value stood at 52.5%.
As to `CCCCCCCC/C=C\CCCCCCCC(=O)NC(C)C` [Example 5, N-Isopropyl-oleyl amide], the solubility in data set [1] (in DMSO and in chloroform) is greater than 10000 µg/mL. Besides, the solubility in water entry in data set [1] is reported as “scarcely soluble”. In the data set with Jurkat cells, the “Growth inhibition (% of control)” value was 66.6 % of control.
Take `CCCCCCCCCCCCCCCC(=O)OCC(C)C` [Example 31, iso-butyl-palmitate]: in data set [1] (in DMSO and in chloroform), the solubility is greater than 10000 µg/mL. In addition, the solubility in water entry in data set [1] is on record as “scarcely soluble”.
As for `CCCCCCCCCCCCCCCC(=O)OC1CCCC1` [Example 41, cyclopentyl-palmitate], the solubility in data set [1] (in DMSO and in chloroform) was greater than 10000 µg/mL. In addition, in data set [1], the solubility in water result was “scarcely soluble”.
In the case of `CCCCCCCCCCCCCCCC(=O)NCCCC` [Example 23, N-butyl-palmitoyl amide], the solubility in data set [1] (in DMSO and in chloroform) was greater than 10000 µg/mL. The solubility in water result in data set [1] is “scarcely soluble”. The “Growth inhibition (% of control)” value in the data set with Jurkat cells is 36.0 % of control. In addition, in data set [2] (mouse ear), the Extravasation is given as 0,59±0,08, the “Oedema (mg)” value is recorded as 35,2 ± 1.7 mg and the “Riduction % (extravasation)” value turned out to be 34.5%.
As for `CCCCCCCCCCCCCCCCCC(=O)OCC(C)C` [Example 32, iso-butyl-stearate], the solubility in data set [1] (in DMSO and in chloroform) is greater than 10000 µg/mL. For the same molecule, in data set [1], the solubility in water entry is reported as “scarcely soluble”.
As for `CCCCCCCC/C=C\CCCCCCCC(N)=O` [Oleylamide], in the data set on Jurkat cells, the “Growth inhibition (% of control)” value is on record as 22.1 % of control. In addition, in data set [2] (mouse ear), the Extravasation is 0,65±0,12, the “Oedema (mg)” value is recorded as 43,5 ± 2.6 mg and the “Riduction % (extravasation)” value is 21.8%.
On to `CCCCCCCCCCCCCCCCCC(=O)NC1CCCCC1` [Example 16, N-cyclohexyl-stearoyl amide], for which, in data set [1] (in DMSO and in chloroform), the solubility is greater than 10000 µg/mL. The solubility in water result in data set [1] is “scarcely soluble”. Besides, in the data set on Jurkat cells, the “Growth inhibition (% of control)” value was 18.2 % of control. For the same molecule, in data set [2] (mouse ear), the Extravasation is 0,66±0,09, the “Oedema (mg)” value is 48,2 ± 1.8 mg and the “Riduction % (extravasation)” value is 26,7%.
On to `CCCCCCCCCCCCCCCCCC(=O)OC(C)C` [Example 11, iso-propyl-stearate], for which, in data set [1] (in DMSO and in chloroform), the solubility was greater than 10000 µg/mL. Further, in data set [1], the solubility in water result was “scarcely soluble”.
In the case of `CCCCCCCCCCCCCCCCCC(=O)NC1CCC1` [Example 28, N-cyclobutyl-stearoyl amide], the solubility in data set [1] (in DMSO and in chloroform) is greater than 10000 µg/mL. Further, the solubility in water entry in data set [1] is listed as “scarcely soluble”. Besides, in the data set with Jurkat cells, the “Growth inhibition (% of control)” value is reported as 31.6 % of control. In addition, in data set [2] (mouse ear), the Extravasation is 0,31±0,12, the “Oedema (mg)” value is 40,6 ± 2.6 mg and the “Riduction % (extravasation)” value is listed as 65.6%.
On to `CCCCCCCCCCCCCCCCCC(=O)NCCCC` [Example 24, N- butyl-stearoyl amide], for which the solubility in data set [1] (in DMSO and in chloroform) is greater than 10000 µg/mL. Besides, in data set [1], the solubility in water result is recorded as “scarcely soluble”. The “Growth inhibition (% of control)” value in the data set on Jurkat cells is listed as 32.1 % of control. In data set [2] (mouse ear), the Extravasation is reported as 0,55±0,07, the “Oedema (mg)” value is 33,6 ± 1.2 mg and the “Riduction % (extravasation)” value came to 38.9%.
As to `CCCCCCCCCCCCCCCCCCCC(=O)NC(C)C` [Example 6, N-Isopropyl-arachidyl amide], the solubility in data set [1] (in DMSO and in chloroform) was greater than 10000 µg/mL. Further, in data set [1], the solubility in water entry is listed as “scarcely soluble”. For the same molecule, the “Growth inhibition (% of control)” value with Jurkat cells was 41.0 % of control.
`CCCCCCCCCCCCCCCCCC(=O)NCCc1ccccc1` [Example 7, N-β-phenylethyl-stearoyl amide]: the solubility in data set [1] (in DMSO and in chloroform) was greater than 10000 µg/mL. Moreover, the solubility in water entry in data set [1] is reported as “scarcely soluble”. Besides, the “Growth inhibition (% of control)” value with Jurkat cells was 47.3 % of control.
Consider `CCCC(C)(C)c1ccc2c(c1)OC(C)(C)[C@@H]1CC=C(C)C[C@@H]21` [JWH 133, reference compound], for which, in the data set on Jurkat cells, the “cellular death in vitro (in words)” value was “unable” and the “Growth inhibition (% of control)” value is listed as 2.0 % of control. Moreover, the “reduction of oedema in vivo (in words)” value in data set [2] (mouse ear) is “unable”. Besides, the “reduction of extravasation in vivo (in words)” value in data set [2] (mouse ear, i.p.) is “unable”.
In the case of `CCCCCCCCCCCCCCCC(=O)OCCCCC` [Example 39, n-pentyl-palmitate], in data set [1] (in DMSO and in chloroform), the solubility was greater than 10000 µg/mL. Besides, the solubility in water result in data set [1] was “scarcely soluble”.
As to `CCCCCCCCCCCCCCCCCCNC(C)=O` [Example 13, N-octadecyl-acetyl-amide], the solubility in data set [1] (in DMSO and in chloroform) was greater than 10000 µg/mL. Moreover, the solubility in water result in data set [1] was “scarcely soluble”. Moreover, the “Growth inhibition (% of control)” value in the data set on Jurkat cells is 67.2 % of control. Moreover, in data set [2] (mouse ear), the Extravasation is recorded as 0,74±0,07, the “Oedema (mg)” value was 43,3 ± 0.6 mg and the “Riduction % (extravasation)” value was found to be 17.2%.
As for `CCCCCCCCCCCCCCCCCC(=O)OCCC` [Example 9, n-propyl-stearate], the solubility in data set [1] (in DMSO and in chloroform) is greater than 10000 µg/mL. In addition, the solubility in water result in data set [1] was “scarcely soluble”.
The matching figures for `CCCCCCCCCCCCCCCCCC(=O)OCCCCC` [Example 40, n-pentyl-stearate]: greater than 10000 µg/mL and “scarcely soluble”.
Regarding `CCCCCCCCCCCCCCCC(=O)OCCC` [Example 8, n-propyl-palmitate], the solubility in data set [1] (in DMSO and in chloroform) was greater than 10000 µg/mL. Moreover, in data set [1], the solubility in water entry was “scarcely soluble”.
Consider `CCCCCC/C=C\CCCCCCCC(=O)NC(C)C` [Example 3, N-Isopropyl-palmitoleyl amide], for which the solubility in data set [1] (in DMSO and in chloroform) was greater than 10000 µg/mL. The solubility in water entry in data set [1] is listed as “scarcely soluble”. The “Growth inhibition (% of control)” value with Jurkat cells was 60.5 % of control.
SR144528 [reference compound]: the “antagonism of the anti-inflammatory effect of cannabinoid, endocannabinoid or molecules object of the invention (in words)” value in data set [2] (CB2 selective antagonist) is “did not antagonize”.
For the molecule `CCCCCCCCCCCCCCCC(=O)OC(C)C` [Example 10, iso-propyl-palmitate], the solubility in data set [1] (in DMSO and in chloroform) was greater than 10000 µg/mL. Moreover, the solubility in water result in data set [1] was “scarcely soluble”.
In the same order, the values of `CCCCCCCCCCCCCCCC(=O)OCCCC` [Example 29, n-butyl-palmitate] are greater than 10000 µg/mL and “scarcely soluble”.
